Results from PubChem BioAssay (NCI).
Values joined by “and” are separate entries in the source; they are usually repeats but may differ in a detail not shown here. Equal entries are not always repeated.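 Compound exposure: 48 hours, 5 concentrations, 96-well plates. Abbreviation: GI50, concentration required for 50% inhibition of growth. At the TGI there is no net growth.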

Test system: MDA-MB-468 breast
Assay: NCI anticancer screen, dose series, 48 h

SMILES	GI50	TGI
Cc1ncc([N+](=O)[O-])n1CCOc1ccc(C(=O)/C=C/c2ccc(C(F)(F)F)cc2)cc1	3.92 µM	21.8 µM
O=C(/C=C/c1ccccn1)c1ccccc1	1.8 µM	3.84 µM
Cc1nc2sc(C(=O)Nc3cccc(Cl)c3)c(N)c2cc1C(O)c1ccccc1 (stereo not given)	0.486 µM	20.1 µM
CC(=O)CCN1CC2CN=NC2(C#N)C1 (stereo not given)	> 100 µM	> 100 µM
CC(C)(C)c1cnc(CSc2cnc(NC(=O)C3CCNCC3)s2)o1	0.097 µM and 0.0794 µM	0.344 µM and 0.306 µM
CN1CCC(C(=O)Nc2n[nH]c3nnc(-c4ccccc4)cc23)CC1	> 18.1 µM	> 25 µM
COc1ccc(C2CC(c3cccc(Nc4ccncc4)c3)=NN2c2ccccc2)cc1 (stereo not given)	1.42 µM	2.82 µM
Cn1cc(C2=C(c3cccc([N+](=O)[O-])c3)C(=O)NC2=O)c2ccccc21	5.85 µM	> 25 µM
CC(C)(C)OC(=O)CC(S(=O)(=O)c1ccccc1)S(=O)(=O)c1ccccc1	1.71 µM	3.2 µM
COc1ccc(-c2nn(-c3cccc(Cl)c3)cc2-c2c(C#N)c(=O)n3[nH]c(-c4ccc(C)o4)nc3c2C#N)cc1	1.34 µM	4.93 µM
CCOC(=O)c1c(-c2ccc(Cl)cc2)c(C#N)c(=S)n(C2OC(COC(C)=O)C(OC(C)=O)C(OC(C)=O)C2OC(C)=O)c1C (stereo not given)	> 100 µM	> 100 µM
COc1cc(/C=C/C(=O)/C=C/c2ccc(-n3ccnc3)cc2)ccc1O	2.2 µM	5.36 µM
COc1ccccc1CNCCCN1C(=O)c2ccc3c4c(ccc(c24)C1=O)C(=O)N(CCCNCCCCN)C3=O	0.0907 µM	0.231 µM
CN(Cc1cnc2nc(N)nc(N)c2n1)c1c(Cl)cc(C(=O)NC(CCC(=O)O)C(=O)O)cc1Br (stereo not given)	< 0.0118 µM	> 100 µM
O=[N+]([O-])/C(=C/C=C/c1ccccc1)c1ccccc1	1.25 µM	3.09 µM
COc1cc(C(=O)Nc2ccc(-c3nc4ccccc4[nH]3)cc2)cc(OC)c1OC	11.9 µM	28.4 µM
C#CCN(CCCOc1ccc(Cl)cc1Cl)CCCSC(=O)CCCCCN1/C(=C\C=C2/CCCC(/C=C/C3=[N+](CCCCCC(=O)[O-])c4ccccc4C3(C)C)=C2Cl)C(C)(C)c2ccccc21	1.35 µM	3.67 µM
OCCN1CCCN(CCCN2c3ccccc3Sc3ccc(C(F)(F)F)cc32)CC1	1.61 µM	3.57 µM
Clc1cc(Cl)cc(Nc2ccc3c(OCCCN4CCOCC4)cccc3n2)c1	2.08 µM	4.33 µM
COc1cc(-c2ccc[nH]2)[nH]c1/C=C1\N=C(C)C(C(=O)NC(C)C)=C1C	2.91 µM	16.8 µM
